For the assay, the target named is T1, SHP2 full-length protein (Homo sapiens, UniProt Q06124).
T1 construct: purchased BPS Bioscience #79330
T1 sequence (Q06124 1-593): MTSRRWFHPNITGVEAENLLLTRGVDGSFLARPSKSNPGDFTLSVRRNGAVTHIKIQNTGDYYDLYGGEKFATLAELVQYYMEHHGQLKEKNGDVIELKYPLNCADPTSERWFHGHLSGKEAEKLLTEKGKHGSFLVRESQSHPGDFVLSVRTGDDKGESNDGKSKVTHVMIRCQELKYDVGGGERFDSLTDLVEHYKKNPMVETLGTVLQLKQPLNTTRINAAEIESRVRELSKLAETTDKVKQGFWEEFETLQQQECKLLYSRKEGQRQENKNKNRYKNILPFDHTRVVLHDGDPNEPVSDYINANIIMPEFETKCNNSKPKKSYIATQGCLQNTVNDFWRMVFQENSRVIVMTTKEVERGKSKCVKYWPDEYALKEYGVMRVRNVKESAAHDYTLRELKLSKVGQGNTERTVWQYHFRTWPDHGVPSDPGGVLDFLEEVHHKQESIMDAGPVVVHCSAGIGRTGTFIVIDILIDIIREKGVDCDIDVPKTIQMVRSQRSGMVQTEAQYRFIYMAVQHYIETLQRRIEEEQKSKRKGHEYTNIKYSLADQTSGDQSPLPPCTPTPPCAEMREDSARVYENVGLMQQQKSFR
Nature of the assay: SHP2 allosteric inhibition experiment (Homogeneous Full Length SHP-2 Assay Kit). The assay is classed as biochemical. The conditions noted are these: full-length SHP2 0.06 nM with SHP-2 activating peptide; ten-point, 1 μM to 0.05 nM; read-out: IC50 Values of Compounds Inhibiting SHP2. An excerpt: The following further describes and explains the present invention in combination with test examples, but these examples are not meant to limit the scope of the present invention. SHP2 allosteric inhibition experiment
The purpose of this test is to measure the ability of the compounds to inhibit the allosteric activity of the SHP2 full-length protein. Experimental equipment: a centrifuge (5810R) is purchased from Eppendorf Company; pipettes are purchased from Eppendorf Company and Rainin Company, and microplate readers are purchased from BioTek Company of the United States, SynergyH1 multimode microplate reader.
Experimental method: Homogeneous Full Length SHP-2 Assay Kit (BPS Bioscience, #79330) is used to detect SHP2 activity in vitro. First, add 18 μL of Master Mix to 96-well low-adsorption microplate (NUNC, #267342), that is, 0.5 μL of SHP-2 activating Peptide and 5 mM DTT are included in the reaction buffer with a final concentration of 1×. After centrifugation, add 5 μL of the compound to be tested in DMSO (final DMSO content is 1% (V/V) in each well: dissolve the compound to be tested in DMSO to 1 mM, conduct triple dilution with a total of 10 concentration levels ranging from 1 μM to 0.05 nM in the reaction buffer. After diluting SHP2 in 1× reaction buffer to a final concentration of 0.06 nM, add it to the reaction microwell plate, 2 μL per well. Set a full activity control ([…]) and a full inhibition control (without SHP-2) on the reaction plate, and incubate the reaction mixture at room temperature for 60 minutes after centrifugation.
After incubation, add 25 μL of Substrate solution to each well, containing Substrate with a final concentration of 10 μM and DTT with a final concentration of 5 mM, and after centrifugation, continue to incubate at room temperature for 30 minutes. After the reaction, set the excitation wavelength at 340 nm, the emission wavelength at 455 nm, and the gain value to 75 on the Synergy H1 microplate reader (Biotek) for reading.
Take the full activity control and full inhibition control as the values of Max and Min, and calculate the percentage inhibition rate of the wells treated with the compound based on the positive control wells (DMSO control wells) and negative control wells (no kinase added) on the reaction plate, (inhibition rate percentage=100−[(test compound−Min average value)/(Max average value−Min average value)]×100%. IC50 values of test compounds are calculated by fitting percentage of inhibition and ten-point concentration data to a 4-parameter nonlinear logic formula using GraphPad prism.

This passage reports IC50 results from patent US20240270759A1, “Preparation of SHP2 phosphatase inhibitors and its applications” (Ya Therapeutics Inc, priority 2021, published 2024).

What is called IC50 is the midpoint of a concentration-inhibition curve. As for `C[C@@H]1OCC2(CCN(c3cnc4nc(Sc5cccc(NC(=O)c6cnccn6)c5Cl)ncc4n3)CC2)[C@@H]1N` [Compound 84, N-(3-((6-((3S,4S)-4-amino-3-methyl-2-oxa-8-azaspiro[4.5]decane-8-yl)pteridine-2-yl)mercapto)-2-chlorophenyl)pyrazine-2-carboxamide], the IC50 was ≤ 0.01 µM.

As to `C[C@@H]1OCC2(CCN(c3ncc4nc(Sc5cccc(NC(=O)c6cnccn6)c5Cl)cnc4n3)CC2)[C@@H]1N` [Compound 85, N-(3-((2-((3S,4S)-4-amino-3-methyl-2-oxa-8-azaspiro[4.5]decane-8-yl)pteridine-6-yl)mercapto)-2-chlorophenyl)pyrazine-2-carboxamide], the IC50 is ≤ 0.01 µM.

As to `C[C@@H]1OCC2(CCN(c3ccc4nc(Sc5cccc(NC(=O)c6cnccn6)c5Cl)ncc4n3)CC2)[C@@H]1N` [Compound 86, N-(3-((6-((3S,4S)-4-amino-3-methyl-2-oxa-8-azaspiro[4.5]decane-8-yl)pyridinyl[3,2-d]pyrimidine-2-yl)mercapto)-2-chlorophenyl)pyrazine-2-carboxamide], the IC50 is ≤ 0.01 µM.

Turning to `C[C@@H]1OCC2(CCN(c3cnc4nc(Sc5cccc(NC(=O)c6c(O)nc7n(c6=O)CCCC7)c5Cl)ncc4n3)CC2)[C@@H]1N` [Compound 87, N-(3-((6-((3S,4S)-4-amino-3-methyl-2-oxa-8-azaspiro[4.5]decane-8-yl)pteridine-2-yl)mercapto)-2-chlorophenyl)-2-hydroxy-4-oxo-6,7,8,9-tetrahydro-4H-pyridinyl[1,2-a]p yrimidine-3-carboxamide], the IC50 was ≤ 0.01 µM.

For the compound `C[C@@H]1OCC2(CCN(c3ncc4nc(Sc5cccc(NC(=O)c6c(O)nc7n(c6=O)CCCC7)c5Cl)cnc4n3)CC2)[C@@H]1N` [Compound 88, N-(3-((2-((3S,4S)-4-amino-3-methyl-2-oxa-8-azaspiro[4.5]decane-8-yl)pteridine-6-yl)mercapto)-2-chlorophenyl)-2-hydroxy-4-oxo-6,7,8,9-tetrahydro-4H-pyridinyl[1,2-a]p yrimidine-3-carboxamide], the IC50 is ≤ 0.01 µM.

Take `C[C@@H]1OCC2(CCN(c3ccc4nc(Sc5cccc(NC(=O)c6c(O)nc7n(c6=O)CCCC7)c5Cl)ncc4n3)CC2)[C@@H]1N` [Compound 89, N-(3-((6-((3S,4S)-4-amino-3-methyl-2-oxa-8-azaspiro[4.5]decane-8-yl)pyridinyl[3,2-d]pyrimidine-2-yl)mercapto)-2-chlorophenyl)-2-hydroxy-4-oxo-6,7,8,9-tetrahydro-4H-pyridinyl[1,2-a]pyrimidine-3-carboxamide]: the concentration for half-maximal inhibition (IC50) is ≤ 0.01 µM.

As to `C[C@@H]1OCC2(CCN(c3ncc4nc(Sc5cccc(-c6ccn(C)n6)c5Cl)ccc4n3)CC2)[C@@H]1N` [Compound 90, (3S,4S)-8-(6-((2-chloro-3-(1-methyl-1H-pyrazole-3-yl)phenyl)mercapto)pyridinyl[3,2-b]pyrimidine-2-yl)-3-methyl-2-oxa-8-azaspiro[4.5]decane-4-amine], the 50% inhibitory concentration (IC50) is ≤ 0.01 µM.

`C[C@@H]1OCC2(CCN(c3ccc4nc(Sc5cccc(-c6ccn(C)n6)c5Cl)cnc4n3)CC2)[C@@H]1N` [Compound 91, (3S,4S)-8-(2-((2-chloro-3-(1-methyl-1H-pyrazole-3-yl)phenyl)mercapto)pyridinyl[2,3-b]pyrazine-6-yl)-3-methyl-2-oxa-8-azaspiro[4.5]decane-4-amine]: the IC50 was ≤ 0.01 µM.

On to `C[C@@H]1OCC2(CCN(c3cnc4nc(Sc5cccc(-c6ccn(C)n6)c5Cl)ccc4n3)CC2)[C@@H]1N` [Compound 92, (3S,4S)-8-(6-((2-chloro-3-(1-methyl-1H-pyrazole-3-yl)phenyl)mercapto)pyridinyl[2,3-b]pyrazine-2-yl)-3-methyl-2-oxa-8-azaspiro[4.5]decane-4-amine], for which the half-inhibitory concentration (IC50) is ≤ 0.01 µM.

For the compound `C[C@@H]1OCC2(CCN(c3ncc4nc(Sc5cccc(Oc6ccn(C)n6)c5Cl)cnc4n3)CC2)[C@@H]1N` [Compound 93], the IC50 is ≤ 0.01 µM.

For `C[C@@H]1OCC2(CCN(c3cnc4nc(Sc5cccc(Oc6ccn(C)n6)c5Cl)ncc4n3)CC2)[C@@H]1N` [Compound 94], the IC50 was ≤ 0.01 µM.

Turning to `C[C@@H]1OCC2(CCN(c3ccc4nc(Sc5cccc(Oc6ccn(C)n6)c5Cl)ncc4n3)CC2)[C@@H]1N` [Compound 95], the IC50 was ≤ 0.01 µM.

In the case of `C[C@@H]1OCC2(CCN(c3ncc4nc(Sc5cccc(NC(=O)c6c(O)nc7n(c6=O)CCCC7)c5Cl)ccc4n3)CC2)[C@@H]1N` [Compound 96, N-(3-((2-((3S,4S)-4-amino-3-methyl-2-oxa-8-azaspiro[4.5]decane-8-yl)pyridinyl[3,2-d]pyrimidine-6-yl)mercapto)-2-chlorophenyl)-2-hydroxy-4-oxo-6,7,8,9-tetrahydro-4H-pyridinyl[1,2-a]pyrimidine-3-carboxamide], the IC50 was ≤ 0.01 µM.

With `C[C@@H]1OCC2(CCN(c3ccc4nc(Sc5cccc(NC(=O)c6c(O)nc7n(c6=O)CCCC7)c5Cl)cnc4n3)CC2)[C@@H]1N` [Compound 97, N-(3-((6-((3S,4S)-4-amino-3-methyl-2-oxa-8-azaspiro[4.5]decane-8-yl)pyridinyl[2,3-b]pyrazine-2-yl)mercapto)-2-chlorophenyl)-2-hydroxy-4-oxo-6,7,8,9-tetrahydro-4H-p yridinyl[1,2-a]pyrimidine-3-carboxamide], the IC50 was ≤ 0.01 µM.

Regarding `C[C@@H]1OCC2(CCN(c3cnc4nc(Sc5cccc(NC(=O)c6c(O)nc7n(c6=O)CCCC7)c5Cl)ccc4n3)CC2)[C@@H]1N` [Compound 98, N-(3-((2-((3S,4S)-4-amino-3-methyl-2-oxa-8-azaspiro[4.5]decane-8-yl)pyridinyl[2,3-b]pyrazine-6-yl)mercapto)-2-chlorophenyl)-2-hydroxy-4-oxo-6,7,8,9-tetrahydro-4H-p yridinyl[1,2-a]pyrimidine-3-carboxamide], the IC50 is ≤ 0.01 µM.

On to `C[C@@H]1OCC2(CCN(c3cnc(Sc4cccc(-c5ccn(C)n5)c4Cl)nc3)CC2)[C@@H]1N` [Compound 99, (3S,4S)-8-(2-((2-chloro-3-(1-methyl-1H-pyrazole-3-yl)phenyl)mercapto)pyrimidine-5-yl)-3-methyl-2-oxa-8-azaspiro[4.5]decane-4-amine], for which the IC50 is ≤ 0.01 µM.

Turning to `CCn1ccc(-c2cccc(Sc3ncc(N4CCC5(CC4)CO[C@@H](C)[C@H]5N)cn3)c2Cl)n1` [Compound 100, (3S,4S)-8-(2-((2-chloro-3-(1-ethyl-1H-pyrazole-3-yl)phenyl)mercapto)pyrimidine-5-yl)-3-methyl-2-oxa-8-azaspiro[4.5]decane-4-amine], the IC50 was ≤ 0.01 µM.

Consider `CC(C)n1ccc(-c2cccc(Sc3ncc(N4CCC5(CC4)CO[C@@H](C)[C@H]5N)cn3)c2Cl)n1` [Compound 101, (3S,4S)-8-(2-((2-chloro-3-(1-isopropyl-1H-pyrazole-3-yl)phenyl)mercapto)pyrimidine-5-yl)-3-methyl-2-oxa-8-azaspiro[4.5]decane-4-amine], for which the IC50 is ≤ 0.01 µM.

In the case of `C[C@@H]1OCC2(CCN(c3cnc(Sc4cccc(NC(=O)c5c(O)nc6n(c5=O)CCCC6)c4Cl)nc3)CC2)[C@@H]1N` [Compound 102, N-(3-((5-((3S,4S)-4-amino-3-methyl-2-oxa-8-azaspiro[4.5]decane-8-yl)pyrimidine-2-yl)mercapto)-2-chlorobenzene)-2-hydroxyl-4-oxa-6,7,8,9-tetrahydro-4H-pyridinyl[1,2-a]pyrimidine-3-carboxamide], the IC50 is ≤ 0.01 µM.

Turning to `C[C@@H]1OCC2(CCN(c3cnc(Sc4cccc(-c5cncnc5)c4Cl)nc3)CC2)[C@@H]1N` [Compound 103, (3S,4S)-8-(2-((2-chloro-3-(pyrimidine-5-yl)phenyl)mercapto)pyrimidine-5-yl)-3-methyl-2-oxa-8-azaspiro[4.5]decane-4-amine], the half-maximal inhibitory concentration (IC50) is ≤ 0.01 µM.
